Source: the NIST ThermoML archive (doi:10.1016/j.tca.2015.06.017)

Experiment: xn = mol fraction of the nth substance listed
Conditions: Liquid, Vibrating tube method

CC(C)CCl [1-chloro-2-methylpropane] + CCCCCCC
mass density [kg/m3]
Conditions	303.15 K	313.15 K	323.15 K
100 kPa, x2 = 0.0531	851.74	840.36	828.79
100 kPa, x2 = 0.1023	839.04	827.85	816.48
100 kPa, x2 = 0.2009	815.06	804.22	793.26
100 kPa, x2 = 0.3009	792.69	782.2	771.57
100 kPa, x2 = 0.3981	772.58	762.38	752.04
100 kPa, x2 = 0.4986	753.31	743.42	733.39
100 kPa, x2 = 0.5998	735.29	725.7	715.95
100 kPa, x2 = 0.7038	718.11	708.77	699.34
100 kPa, x2 = 0.7993	703.45	694.32	685.15
100 kPa, x2 = 0.8995	689.05	680.21	671.24
100 kPa, x2 = 0.9507	682.07	673.34	664.49
2000 kPa, x2 = 0.0531	853.98	842.7	831.42
2000 kPa, x2 = 0.1023	841.31	830.21	819.08
2000 kPa, x2 = 0.2009	817.39	806.67	795.85
2000 kPa, x2 = 0.3009	794.98	784.62	774.11
2000 kPa, x2 = 0.3981	774.81	764.76	754.54
2000 kPa, x2 = 0.4986	755.48	745.75	735.78
2000 kPa, x2 = 0.5998	737.44	727.98	718.28
2000 kPa, x2 = 0.7038	720.22	711.05	701.64
2000 kPa, x2 = 0.7993	705.49	696.57	687.35
2000 kPa, x2 = 0.8995	691.14	682.44	673.46
2000 kPa, x2 = 0.9507	684.19	675.59	666.75
5000 kPa, x2 = 0.0531	857.38	846.39	835.4
5000 kPa, x2 = 0.1023	844.68	833.87	823.02
5000 kPa, x2 = 0.2009	820.73	810.25	799.77
5000 kPa, x2 = 0.3009	798.27	788.13	777.97
5000 kPa, x2 = 0.3981	778.06	768.2	758.35
5000 kPa, x2 = 0.4986	758.67	749.13	739.53
5000 kPa, x2 = 0.5998	740.59	731.29	721.98
5000 kPa, x2 = 0.7038	723.33	714.28	705.28
5000 kPa, x2 = 0.7993	708.59	699.76	690.97
5000 kPa, x2 = 0.8995	694.18	685.54	677.02
5000 kPa, x2 = 0.9507	687.22	678.7	670.29
7000 kPa, x2 = 0.0531	859.64	848.82	838.13
7000 kPa, x2 = 0.1023	846.92	836.28	825.7
7000 kPa, x2 = 0.2009	822.92	812.64	802.4
7000 kPa, x2 = 0.3009	800.42	790.49	780.57
7000 kPa, x2 = 0.3981	780.18	770.54	760.9
7000 kPa, x2 = 0.4986	760.74	751.42	742.03
7000 kPa, x2 = 0.5998	742.6	733.56	724.42
7000 kPa, x2 = 0.7038	725.32	716.53	707.68
7000 kPa, x2 = 0.7993	710.55	701.96	693.36
7000 kPa, x2 = 0.8995	696.12	687.72	679.35
7000 kPa, x2 = 0.9507	689.13	680.86	672.58
10000 kPa, x2 = 0.0531	862.96	852.24	841.75
10000 kPa, x2 = 0.1023	850.21	839.68	829.31
10000 kPa, x2 = 0.2009	826.15	815.97	805.94
10000 kPa, x2 = 0.3009	803.62	793.76	784.05
10000 kPa, x2 = 0.3981	783.33	773.76	764.32
10000 kPa, x2 = 0.4986	763.84	754.58	745.38
10000 kPa, x2 = 0.5998	745.64	736.65	727.75
10000 kPa, x2 = 0.7038	728.31	719.62	710.93
10000 kPa, x2 = 0.7993	713.5	705.01	696.57
10000 kPa, x2 = 0.8995	699.03	690.72	682.48
10000 kPa, x2 = 0.9507	692.03	683.8	675.7
20000 kPa, x2 = 0.0531	873	863.01	853.08
20000 kPa, x2 = 0.1023	860.17	850.29	840.6
20000 kPa, x2 = 0.2009	835.94	826.35	817.1
20000 kPa, x2 = 0.3009	813.23	804.06	794.98
20000 kPa, x2 = 0.3981	792.77	783.83	775.23
20000 kPa, x2 = 0.4986	773.13	764.52	755.93
20000 kPa, x2 = 0.5998	754.8	746.45	738.09
20000 kPa, x2 = 0.7038	737.29	729.18	721.08
20000 kPa, x2 = 0.7993	722.32	714.39	706.61
20000 kPa, x2 = 0.8995	707.71	699.99	692.36
20000 kPa, x2 = 0.9507	700.65	692.96	685.54
30000 kPa, x2 = 0.0531	882.09	872.66	863.29
30000 kPa, x2 = 0.1023	869.13	859.97	850.64
30000 kPa, x2 = 0.2009	844.8	835.81	826.96
30000 kPa, x2 = 0.3009	821.91	813.29	804.68
30000 kPa, x2 = 0.3981	801.3	792.99	784.58
30000 kPa, x2 = 0.4986	781.52	773.45	765.27
30000 kPa, x2 = 0.5998	763.03	755.17	747.25
30000 kPa, x2 = 0.7038	745.43	737.72	730.1
30000 kPa, x2 = 0.7993	730.33	722.79	715.4
30000 kPa, x2 = 0.8995	715.6	708.23	700.96
30000 kPa, x2 = 0.9507	708.5	701.14	694.07
40000 kPa, x2 = 0.0531	890.44	881.46	872.52
40000 kPa, x2 = 0.1023	877.39	868.66	859.81
40000 kPa, x2 = 0.2009	852.91	844.37	835.84
40000 kPa, x2 = 0.3009	829.87	821.69	813.46
40000 kPa, x2 = 0.3981	809.15	801.27	793.25
40000 kPa, x2 = 0.4986	789.24	781.56	773.87
40000 kPa, x2 = 0.5998	770.61	763.14	755.68
40000 kPa, x2 = 0.7038	752.83	745.56	738.29
40000 kPa, x2 = 0.7993	737.59	730.5	723.4
40000 kPa, x2 = 0.8995	722.73	715.76	708.85
40000 kPa, x2 = 0.9507	715.55	708.64	701.87
50000 kPa, x2 = 0.0531	898.25	889.63	881.03
50000 kPa, x2 = 0.1023	885.12	876.7	868.25
50000 kPa, x2 = 0.2009	860.41	852.23	844.11
50000 kPa, x2 = 0.3009	837.32	829.5	821.56
50000 kPa, x2 = 0.3981	816.52	808.88	801.14
50000 kPa, x2 = 0.4986	796.41	789.11	781.63
50000 kPa, x2 = 0.5998	777.65	770.57	763.29
50000 kPa, x2 = 0.7038	759.78	752.8	745.73
50000 kPa, x2 = 0.7993	744.45	737.67	730.8
50000 kPa, x2 = 0.8995	729.47	722.82	716.06
50000 kPa, x2 = 0.9507	722.23	715.59	709.05
60000 kPa, x2 = 0.0531	905.4	897.18	888.87
60000 kPa, x2 = 0.1023	892.33	884.27	876.05
60000 kPa, x2 = 0.2009	867.48	859.72	851.78
60000 kPa, x2 = 0.3009	844.24	836.81	829.15
60000 kPa, x2 = 0.3981	823.28	815.99	808.64
60000 kPa, x2 = 0.4986	803.13	796.1	788.91
60000 kPa, x2 = 0.5998	784.27	777.45	770.47
60000 kPa, x2 = 0.7038	766.25	759.57	752.78
60000 kPa, x2 = 0.7993	750.88	744.29	737.68
60000 kPa, x2 = 0.8995	735.73	729.33	722.83
60000 kPa, x2 = 0.9507	728.44	722.04	715.76
65000 kPa, x2 = 0.0531	908.87	900.74	892.62
65000 kPa, x2 = 0.1023	895.79	887.8	879.77
65000 kPa, x2 = 0.2009	870.84	863.12	855.45
65000 kPa, x2 = 0.3009	847.58	840.18	832.75
65000 kPa, x2 = 0.3981	826.58	819.3	812.18
65000 kPa, x2 = 0.4986	806.34	799.37	792.37
65000 kPa, x2 = 0.5998	787.42	780.62	773.88
65000 kPa, x2 = 0.7038	769.32	762.72	756.14
65000 kPa, x2 = 0.7993	753.84	747.34	741.15
65000 kPa, x2 = 0.8995	738.7	732.38	726.04
65000 kPa, x2 = 0.9507	731.35	725.02	718.95
